Laboratory results from publication PMC6934184, “Selective DNA-PKcs inhibition extends the therapeutic index of localized radiotherapy and chemotherapy” (The Journal of Clinical Investigation, 2019).

Target: T1, CSNK1G2 (CK1 gamma 2) (Homo sapiens, UniProt P78368)
T1 construct: purchased Thermo Fisher Scientific (Life Technologies) SelectScreen
Experiment: SelectScreen Z'LYTE
Type: biochemical
In short: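 NU5455 was profiled across the SelectScreen Broad panel of kinase activity and binding assays. Z'LYTE reactions such as CSF1R ran at apparent Km ATP, while the Adapta CAMK1 assay used ATP listed as 10. Values are given as percent.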

T1 sequence (P78368 whole entry): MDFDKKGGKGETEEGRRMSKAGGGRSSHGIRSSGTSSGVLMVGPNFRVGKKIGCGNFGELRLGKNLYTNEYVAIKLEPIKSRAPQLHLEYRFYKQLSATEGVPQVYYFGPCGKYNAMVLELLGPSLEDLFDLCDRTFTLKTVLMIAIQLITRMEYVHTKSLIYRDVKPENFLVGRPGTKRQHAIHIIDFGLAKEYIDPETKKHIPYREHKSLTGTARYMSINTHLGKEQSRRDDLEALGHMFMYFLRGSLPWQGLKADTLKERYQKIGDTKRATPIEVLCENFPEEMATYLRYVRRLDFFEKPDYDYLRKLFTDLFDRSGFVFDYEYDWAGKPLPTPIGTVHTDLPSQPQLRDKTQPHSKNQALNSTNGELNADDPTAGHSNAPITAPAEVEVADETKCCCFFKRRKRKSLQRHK

Work on `CN(C(=O)CN1CCOCC1)c1ccc2sc3c(-c4cccc5c(=O)cc(N6CC7CCC(C6)O7)oc45)cccc3c2c1` [NU5455] yielded an inhibition at 1 µM of -9.3%.
